Where “and” joins values, the source holds several entries; their conditions need not be identical. Equal entries are not always repeated.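 Dose response: 5 concentrations. Exposure: 48 h. Format: 96-well plates. Endpoint: linear interpolation; highest concentration if not reached. GI50 = concentration required for 50% inhibition of growth. TGI denotes the concentration required for complete inhibition of growth.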
Experiments:
Test in all cases: NCI tumour cell line growth inhibition, 48 h
M19-MEL melanoma = test system: M19-MEL melanoma
LXFL 529 NSCLC = test system: LXFL 529 NSCLC
XF 498 CNS = test system: XF 498 CNS
DLD-1 colon = test system: DLD-1 colon
DMS 114 small cell lung = test system: DMS 114 small cell lung
KM20L2 colon = test system: KM20L2 colon
SNB-78 CNS = test system: SNB-78 CNS
DMS 273 small cell lung = test system: DMS 273 small cell lung
P388/ADR leukemia = test system: P388/ADR leukemia
P388 leukemia = test system: P388 leukemia
SN12K1 renal = test system: SN12K1 renal
RXF-631 renal = test system: RXF-631 renal

In the case of `CN(/N=C/c1ccnc2ccccc12)c1ccc([N+](=O)[O-])cc1[N+](=O)[O-]`, the TGI (M19-MEL melanoma) was > 100 µM, the TGI (LXFL 529 NSCLC) was > 100 µM and the TGI (XF 498 CNS) was > 100 µM. For the same compound, the TGI (DLD-1 colon) was > 100 µM, the TGI (DMS 114 small cell lung) was > 100 µM and the TGI (KM20L2 colon) was > 100 µM. For the same compound, the TGI (SNB-78 CNS) was > 100 µM and the TGI (DMS 273 small cell lung) was > 100 µM.

`O=C1C=CN(C2OC(CO)C(O)C2O)C(=O)C1` (stereo not drawn) was tested, and the TGI (P388/ADR leukemia) was > 992 µM, the TGI (M19-MEL melanoma) was 1370 µM and the TGI (P388 leukemia) was 52.5 µM. It also gave a GI50 (XF 498 CNS) of 409 µM, a TGI (XF 498 CNS) of 1940 µM and a GI50 (DLD-1 colon) of 21.5 µM. For the same compound, the TGI (DLD-1 colon) was 625 µM and > 2500 µM, the GI50 (KM20L2 colon) was 19.9 µM and the TGI (KM20L2 colon) was 625 µM and > 1160 µM. The GI50 (SN12K1 renal) was 24.7 µM and 14.4 µM, the TGI (SN12K1 renal) was 625 µM and > 810 µM and the GI50 (DMS 273 small cell lung) was > 625 µM. For the same compound, the TGI (DMS 273 small cell lung) was > 2500 µM.

In the case of `CCc1ccc(/C(C)=N/NC(N)=S)cc1`, the TGI (M19-MEL melanoma) was > 100 µM, the TGI (XF 498 CNS) was 82.6 µM and the TGI (DMS 114 small cell lung) was > 100 µM. The TGI (KM20L2 colon) was > 100 µM and the TGI (SNB-78 CNS) was > 100 µM.

In the case of `O=C(CCCNC(=O)OCc1ccccc1)OCc1ccc2c(c1)C(=O)c1ccccc1C2=O`, the TGI (LXFL 529 NSCLC) was > 100 µM, the TGI (DLD-1 colon) was > 100 µM and the TGI (DMS 114 small cell lung) was > 100 µM. The TGI (KM20L2 colon) was > 100 µM, the TGI (RXF-631 renal) was > 100 µM and the TGI (SNB-78 CNS) was > 94.3 µM. For the same compound, the TGI (DMS 273 small cell lung) was > 100 µM.

In the case of `N#CCC(=O)N/N=C1/C(=O)NC(=O)C(=O)C1c1nc2ccccc2s1` (stereo not drawn), the TGI (M19-MEL melanoma) was > 100 µM, the TGI (LXFL 529 NSCLC) was > 100 µM and the TGI (DLD-1 colon) was > 100 µM. For the same compound, the TGI (DMS 114 small cell lung) was > 100 µM, the TGI (KM20L2 colon) was > 100 µM and the TGI (RXF-631 renal) was > 100 µM. The TGI (SNB-78 CNS) was > 100 µM and the TGI (DMS 273 small cell lung) was > 100 µM.

For `O=C(CCC(=O)N/N=C/c1ccccc1O)N/N=C/c1ccccc1O`, the TGI (M19-MEL melanoma) was > 100 µM, the TGI (LXFL 529 NSCLC) was > 100 µM and the TGI (DMS 114 small cell lung) was > 100 µM. The TGI (KM20L2 colon) was > 100 µM, the TGI (SNB-78 CNS) was > 100 µM and the TGI (DMS 273 small cell lung) was > 100 µM.

With `CN(C)c1nc(N(C)C)n2nc(-c3ccccc3[N+](=O)[O-])nc2n1` the TGI (M19-MEL melanoma) was > 100 µM, the TGI (LXFL 529 NSCLC) was > 100 µM and the TGI (XF 498 CNS) was > 100 µM. For the same compound, the TGI (DLD-1 colon) was > 100 µM, the TGI (DMS 114 small cell lung) was > 100 µM and the TGI (KM20L2 colon) was > 100 µM. The TGI (SNB-78 CNS) was > 100 µM and the TGI (DMS 273 small cell lung) was > 100 µM.

`COc1ccc(CCNCc2cccc(OC)c2OC)cc1OC` was tested, and the TGI (M19-MEL melanoma) was > 100 µM, the TGI (LXFL 529 NSCLC) was > 100 µM and the TGI (XF 498 CNS) was > 100 µM. For the same compound, the TGI (DLD-1 colon) was > 100 µM, the TGI (DMS 114 small cell lung) was > 100 µM and the TGI (KM20L2 colon) was > 100 µM. The TGI (RXF-631 renal) was > 100 µM, the TGI (SNB-78 CNS) was > 100 µM and the TGI (DMS 273 small cell lung) was > 100 µM.

With `C[C@H]1COC2(c3ccccc3)CCC(=O)N12` (stereo partly drawn) the TGI (M19-MEL melanoma) was > 100 µM, the TGI (XF 498 CNS) was > 100 µM and the TGI (DLD-1 colon) was > 100 µM. For the same compound, the TGI (DMS 114 small cell lung) was > 100 µM, the TGI (KM20L2 colon) was > 100 µM and the TGI (SNB-78 CNS) was > 100 µM. The TGI (DMS 273 small cell lung) was > 100 µM.

`O=C1OC(c2ccccc2)=N/C1=C\c1c(O)cc(O)cc1O` was tested, and the TGI (M19-MEL melanoma) was > 100 µM, the TGI (LXFL 529 NSCLC) was > 100 µM and the TGI (DMS 114 small cell lung) was > 100 µM. The TGI (KM20L2 colon) was > 100 µM, the TGI (SNB-78 CNS) was > 100 µM and the TGI (DMS 273 small cell lung) was > 100 µM.

`OCC(O)COc1c(Cl)ccc(Cl)c1Cl` (stereo not drawn) was tested, and the TGI (M19-MEL melanoma) was > 100 µM, the TGI (LXFL 529 NSCLC) was > 100 µM and the TGI (XF 498 CNS) was > 100 µM. The TGI (DLD-1 colon) was > 100 µM, the TGI (DMS 114 small cell lung) was > 100 µM and the TGI (KM20L2 colon) was > 100 µM. The TGI (SNB-78 CNS) was > 100 µM and the TGI (DMS 273 small cell lung) was > 100 µM.

In the case of `O=C(CCc1ccccc1)On1nnc2ccccc2c1=O`, the TGI (M19-MEL melanoma) was > 100 µM, the TGI (LXFL 529 NSCLC) was > 100 µM and the TGI (DLD-1 colon) was > 100 µM. The TGI (DMS 114 small cell lung) was > 100 µM, the TGI (KM20L2 colon) was > 100 µM and the TGI (SNB-78 CNS) was > 100 µM. The TGI (DMS 273 small cell lung) was > 100 µM.

With `CC(=O)OCC(OC(C)=O)C(OC(C)=O)C(OC(C)=O)C(=O)CNn1c(-c2ccccc2)nc2ccc(Br)cc2c1=O` (stereo not drawn) the TGI (M19-MEL melanoma) was > 100 µM, the TGI (LXFL 529 NSCLC) was > 100 µM and the TGI (XF 498 CNS) was > 100 µM. The TGI (DMS 114 small cell lung) was > 100 µM, the TGI (KM20L2 colon) was > 100 µM and the TGI (SNB-78 CNS) was > 100 µM. For the same compound, the TGI (DMS 273 small cell lung) was > 100 µM.

For `CC(C)CC(CNC(Cc1ccc(Cl)cc1)C(N)=O)NC(=O)C(Cc1cnc[nH]1)NC(=O)CNC(=O)C(NC(=O)C(C)NC(=O)C(Cc1c[nH]c2ccccc12)NC(=O)C(CCC(=O)O)NC(=O)C(N)Cc1ccccc1)C(C)C` (stereo not drawn), the TGI (M19-MEL melanoma) was > 133 µM, the TGI (LXFL 529 NSCLC) was > 133 µM and the TGI (XF 498 CNS) was > 133 µM. The TGI (DLD-1 colon) was > 133 µM, the TGI (DMS 114 small cell lung) was > 133 µM and the TGI (KM20L2 colon) was > 133 µM. The TGI (RXF-631 renal) was > 133 µM, the TGI (SNB-78 CNS) was > 133 µM and the TGI (DMS 273 small cell lung) was > 133 µM.

With `Cc1[nH]c(=O)nc(CC(O)(c2ccccc2)c2ccccc2)c1-c1ccccc1` the TGI (M19-MEL melanoma) was > 100 µM, the TGI (LXFL 529 NSCLC) was > 100 µM and the TGI (DLD-1 colon) was > 100 µM. For the same compound, the TGI (DMS 114 small cell lung) was > 100 µM, the TGI (KM20L2 colon) was > 100 µM and the TGI (RXF-631 renal) was > 100 µM. For the same compound, the TGI (SNB-78 CNS) was > 100 µM and the TGI (DMS 273 small cell lung) was > 100 µM.

`Fc1ccc(F)c(C2SCc3nc4ccccc4n32)c1` (stereo not drawn) was tested, and the TGI (M19-MEL melanoma) was > 100 µM, the TGI (LXFL 529 NSCLC) was > 100 µM and the TGI (DLD-1 colon) was > 100 µM. For the same compound, the TGI (DMS 114 small cell lung) was 68.8 µM, the TGI (KM20L2 colon) was > 100 µM and the TGI (SNB-78 CNS) was > 100 µM. The TGI (DMS 273 small cell lung) was 64.3 µM.

With `CS(=O)(=O)OCCN(CCOS(C)(=O)=O)c1ccc(C=Nc2ccc3oc(=O)ccc3c2)cc1` the TGI (M19-MEL melanoma) was 39 µM, the TGI (LXFL 529 NSCLC) was 36.4 µM and the TGI (DMS 114 small cell lung) was 22.3 µM. The TGI (KM20L2 colon) was > 100 µM and the TGI (SNB-78 CNS) was 12.5 µM.

`CCc1ccccc1-n1c2nc(=O)n(C)c(=O)c-2nc2ccccc21` showed a TGI (M19-MEL melanoma) of 3.69 µM, a TGI (LXFL 529 NSCLC) of 24.8 µM and a TGI (XF 498 CNS) of 22 µM. It also gave a TGI (DLD-1 colon) of 45.2 µM, a TGI (DMS 114 small cell lung) of 14.2 µM and a TGI (SNB-78 CNS) of 38.5 µM. It also gave a TGI (DMS 273 small cell lung) of 22.1 µM.

`CCOC(=O)C1=C(NC(C)(C)C)OCC1=O` was tested, and the TGI (LXFL 529 NSCLC) was > 100 µM, the TGI (XF 498 CNS) was > 100 µM and the TGI (DLD-1 colon) was > 100 µM. The TGI (KM20L2 colon) was > 100 µM, the TGI (RXF-631 renal) was > 100 µM and the TGI (SNB-78 CNS) was > 100 µM.

`Cc1cccc2c1Oc1cc(Cl)ccc1C2NC(=O)CN(C)C` (stereo not drawn) was tested, and the TGI (M19-MEL melanoma) was 47.6 µM, the TGI (LXFL 529 NSCLC) was > 100 µM and the TGI (DLD-1 colon) was > 100 µM. The TGI (DMS 114 small cell lung) was > 100 µM, the TGI (KM20L2 colon) was 41.2 µM and the TGI (SNB-78 CNS) was > 100 µM. The TGI (DMS 273 small cell lung) was > 100 µM.

In the case of `Cc1c(C2Cc3ccccc3N2C(=O)/C=C\C(=O)O)c2ccccc2n1C` (stereo not drawn), the TGI (M19-MEL melanoma) was 52.3 µM, the TGI (LXFL 529 NSCLC) was 34.8 µM and the TGI (XF 498 CNS) was 31.5 µM. The TGI (DLD-1 colon) was > 100 µM, the TGI (DMS 114 small cell lung) was 40 µM and the TGI (KM20L2 colon) was 58.3 µM. The TGI (RXF-631 renal) was > 100 µM, the TGI (SNB-78 CNS) was > 100 µM and the TGI (DMS 273 small cell lung) was > 100 µM.

`CC[C@@H](C)[C@H]([C@H](CC(=O)N1CCC[C@@H]1[C@@H](OC)[C@H](C)C(=O)N[C@H](Cc1ccccc1)c1nccs1)OC)N(C)C(=O)[C@H](NC(=O)[C@@H](C(C)C)N(C)C)C(C)C` was tested, and the TGI (P388/ADR leukemia) was 0.000573 µM, the GI50 (M19-MEL melanoma) was 0.000425 µM and the TGI (P388 leukemia) was 0.581 µM. It also gave a TGI (DMS 114 small cell lung) of 0.00123 µM, a TGI (KM20L2 colon) of 0.000234 µM and a TGI (RXF-631 renal) of 0.00731 µM.

For `COc1ccc(/C(Cl)=C(\C=O)c2ccc(OC)c(OC)c2)cc1OC`, the TGI (P388/ADR leukemia) was > 85.8 µM, the TGI (M19-MEL melanoma) was > 100 µM and the TGI (P388 leukemia) was > 100 µM. For the same compound, the TGI (XF 498 CNS) was > 100 µM, the TGI (DLD-1 colon) was > 100 µM and the TGI (DMS 114 small cell lung) was > 100 µM. For the same compound, the TGI (KM20L2 colon) was > 100 µM, the TGI (SNB-78 CNS) was > 100 µM and the TGI (SN12K1 renal) was > 100 µM. The TGI (DMS 273 small cell lung) was > 100 µM.
